Measurements reported in patent US20250268894A1, “MACROCYCLE COMPOUNDS FOR THE TREATMENT OF CANCER” (Hoffmann-La Roche Inc., priority 2022, published 2025).

Key:
[1] = test system: phosphorylation of ERK, KRAS G12D in AGS cells; assay: pERK inhibition assay, KRAS G12D in AGS cells; type: cell-based, human; settings: Homo sapiens, 4 hours
Procedure, shortened: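 NCI-H358 (G12C), AGS (G12D) and SW620 (G12V) cells in RPMI-1640/10% FBS, plated overnight, then treated 4 h with compound (0.5% DMSO final). Fixed, methanol-permeabilized; phospho-ERK detected by in-cell ELISA (anti-pERK, HRP secondary, TMB, OD450). IC50 from 4-parameter sigmoidal fit.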

[2] = molecular target: KRAS G12D-BRAF complex (Homo sapiens (Human), UniProt P01116+P62937, G12D); assay: KRAS-BRAF with CYPA (500 nM) interaction assay (TR-FRET), G12D; type: biochemical
KRAS G12D-BRAF complex, sequence (P01116-2 other isoform, or with tags, fused parts or gaps G12D): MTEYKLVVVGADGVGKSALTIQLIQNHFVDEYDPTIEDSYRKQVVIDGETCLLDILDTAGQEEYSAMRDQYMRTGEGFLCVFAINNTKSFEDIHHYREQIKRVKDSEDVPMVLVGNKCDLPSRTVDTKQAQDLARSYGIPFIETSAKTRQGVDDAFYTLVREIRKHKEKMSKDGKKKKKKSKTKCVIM
KRAS G12D-BRAF complex, sequence (P62937 whole entry): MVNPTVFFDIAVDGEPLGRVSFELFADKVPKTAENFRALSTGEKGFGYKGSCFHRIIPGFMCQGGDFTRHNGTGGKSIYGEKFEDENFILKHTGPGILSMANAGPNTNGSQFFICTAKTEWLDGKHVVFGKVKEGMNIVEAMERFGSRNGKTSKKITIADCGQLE
Method: (§1) Kras-BRAF with CYPA (500 nM) Interaction Assay In this example, TR-FRET was also used to measure the compound or compound-CYPA dependent disruption of the KRAS G12C-BRAF complex. This protocol was also used to measure disruption of KRAS G12D or KRAS G12V binding to BRAF by a compound of the invention, respectively. […] Compound was present in plate wells as a 16-point 3-fold dilution series starting at a final concentration of 10 μM and incubated for 3 hours. […] TR-FRET signal was read on a […] microplate reader (Ex320 nm, Em 665/615 nm). Compounds that facilitate disruption of the KRAS-BRAF complex were identified as those eliciting a decrease in the TR-FRET ratio relative to DMSO control wells.

[3] = test system: Miapaca-2 KRAS G12C + H95N cells; assay: Stable KRAS mutant cell line viability assay (CellTiter-Glo), G12C + H95N; type: cell-based; settings: Homo sapiens, MIA PaCa-2, 72 h, Miapaca-2 mutant cells, 3 d
Excerpt: (§2) The aim of the study was to determine the potency and efficacy of compounds for cell proliferation using CellTiter-Glo® (CTG) Luminescent Cell Viability Assay (Promega Corp., Madison, WI). We cloned […] KRAS^G12C variant sequences with secondary mutations (V8A, V9Y, S17E, T58I, A59T, S65W, R68S, D69P, M72I, D92R, H95N, Y96D, Q99F, Q99W, Y96H, and F156L) into the Miapaca-2. Totally 14 stable Miapaca-2 mutant cell lines were established through lentivirus infection. For the cell viability assay, cells were dosed with compounds in a 9-point dose-response using a 4 fold dilution series at a top dose of 10 μM. KRAS mutant cells were maintained in DMEM+10% FBS+2.5% HI Horse serum+1% PS+1 μg/mL Puromycin and seeded into 96-well plates at 800-1,500 cells per well 24 h before compound addition and then incubated with compound for 3 d before assaying viability (CellTiter-Glo, Promega). Assays were performed in biological duplicates. Nonlinear regression curves were fitted using Xfit. IC50 (absolute IC50) is the dose at which the estimated viability is 50% relative to untreated wells.

[4] = test system: Miapaca-2 KRAS G12C + F156L cells; assay: Stable KRAS mutant cell line viability assay (CellTiter-Glo), G12C + F156L; type: cell-based; settings: Homo sapiens, MIA PaCa-2, 72 h, Miapaca-2 mutant cells, 3 d
Excerpt: as §2

[5] = test system: human hepatocytes; assay: Human hepatocyte stability assay; type: in vitro ADME; settings: 1 μM compound, human hepatocyte suspension 1×10^6 cells/mL
Method: The hepatocyte stability assay measures the rate of disappearance of a compound from incubations with cryopreserved suspension hepatocytes from human. Positive controls, including Midazolam, Raloxifene and Dextromethorphan, are included in every experiment. Incubations consist of 1 μM tested compound and suspension of human hepatocytes (1×10^6 cells/mL) in supplemented Williams' E Medium with 10% FBS and 0.5% Penicillin-streptomycin. The hepatocyte suspension was incubated with intermittent shaking 900 rpm at 37° C., in a 5% CO2 incubator. The reaction was stopped by adding methanol containing internal standard (2 μM Tolbutamide) at 2, 10, 20, 40, 60 and 120 minutes after compound addition, depletion of the parent compound was monitored by LC-MS/MS analysis.

[6] = test system: SW620 cells (KRAS G12V); assay: Cell viability assay (Cell Counting Kit-8), KRAS G12V; type: cell-based; settings: Homo sapiens, SW-620, SW620, 72 hrs
Procedure, shortened: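 Cells seeded overnight at 5,000/well (NCI-H358) or 2,000/well (AGS, SW620), then exposed to compound for 72 hrs at 0.5% DMSO final. CCK-8 read as OD450 minus OD650 after 2 hrs; IC50 from 4-parameter sigmoidal fit.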

[7] = molecular target: KRAS G12V-BRAF complex (Homo sapiens (Human), UniProt P01116+P62937, G12V); assay: KRAS-BRAF with CYPA (500 nM) interaction assay (TR-FRET), G12V; type: biochemical
KRAS G12V-BRAF complex, sequence (P01116-2 other isoform, or with tags, fused parts or gaps G12V): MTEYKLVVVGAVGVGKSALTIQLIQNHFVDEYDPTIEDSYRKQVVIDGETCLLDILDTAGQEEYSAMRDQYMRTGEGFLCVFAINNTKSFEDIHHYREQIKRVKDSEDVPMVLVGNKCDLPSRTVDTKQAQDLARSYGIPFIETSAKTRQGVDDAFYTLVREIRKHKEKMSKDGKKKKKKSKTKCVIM
KRAS G12V-BRAF complex, sequence (P62937 whole entry): as the sequence (P62937 whole entry) above
Method: as §1

[8] = test system: Miapaca-2 KRAS G12C + S17E cells; assay: Stable KRAS mutant cell line viability assay (CellTiter-Glo), G12C + S17E; type: cell-based; settings: Homo sapiens, MIA PaCa-2, 72 h, Miapaca-2 mutant cells, 3 d
Excerpt: as §2

## CO[C@@H](C)c1ncc(N2CCN(CC(F)(F)F)CC2)cc1-c1c2c3cc(ccc3n1CC(F)(F)F)-c1csc(n1)C[C@H](NC(=O)[C@H](C(C)C)N(C)C(=O)N1CCOCC1)C(=O)N1CCC[C@H](N1)C(=O)OCC(C)(C)C2 (atropisomer, axis not shown; (M)) [Example 6]
[1]
  IC50: 3 nM
[2]
  IC50: 71 nM
[3]
  IC50: 5 nM
[4]
  IC50: 8 nM
[5]
  CL_hep (Human): <2.4 mL/min/kg
[6]
  IC50: 2 nM
[7]
  IC50: 61 nM
[8]
  IC50: 5 nM
